# Assay results: US20090016990A1, “Antimicrobial Compositions” (priority 2007, published 2009)
# Assays:
# [1] = test system: Pseudomonas aeruginosa ATCC 27853; test: MBEC assay, biofilm inhibition (prevention of biofilm formation), MBEC bioFILM PA panel; assay type: cell-based; parameters: MBEC-Biofilm Inhibition, Without compound 9 / MBEC-Biofilm Inhibition, Without compound 6 / MBEC-Biofilm Inhibition, Without compound 2 / MBEC-Biofilm Inhibition, Without compound 7 / MBEC-Biofilm Inhibition, With 0.01% compound 7 in 5% EtOH/PBS / MBEC-Biofilm Inhibition, without salt of compound 2 / MBEC-Biofilm Inhibition, with 0.1% salt of compound 2 / MBEC-Biofilm Inhibition, without salt of compound 6: unit not given here; settings: for MBEC-Biofilm Inhibition, without salt of compound 2 / MBEC-Biofilm Inhibition, with 0.1% salt of compound 2: Table 9; for MBEC-Biofilm Inhibition, without salt of compound 2 / MBEC-Biofilm Inhibition, without salt of compound 6: antibiotic or antibiotic combination alone; for MBEC-Biofilm Inhibition, without salt of compound 2 / MBEC-Biofilm Inhibition, with 0.1% salt of compound 2 / MBEC-Biofilm Inhibition, without salt of compound 6 / MBEC-Biofilm Inhibition, with 0.1% salt of compound 6: value per component; for MBEC-Biofilm Inhibition, without salt of compound 2: separated by /; for MBEC-Biofilm Inhibition, with 0.1% salt of compound 2: antibiotic or combination plus 0.1% salt of compound 2; for MBEC-Biofilm Inhibition, without salt of compound 6 / MBEC-Biofilm Inhibition, with 0.1% salt of compound 6: Table 10; for MBEC-Biofilm Inhibition, with 0.1% salt of compound 6: antibiotic or combination plus 0.1% salt of compound 6; for MBEC-Biofilm Inhibition, Without compound 1 / MBEC-Biofilm Inhibition, Without compound 2 / MBEC-Biofilm Inhibition, Without compound 3 / MBEC-Biofilm Inhibition, Without compound 6 / MBEC-Biofilm Inhibition, Without compound 7 / MBEC-Biofilm Inhibition, Without compound 9: antibiotic alone
# [2] = test system: Pseudomonas aeruginosa ATCC 27853; test: MBEC assay, biofilm elimination, MBEC bioFILM PA panel; assay type: cell-based; parameters: MBEC-Biofilm Elimination, Without compound 2 / MBEC-Biofilm Elimination, With 0.01% compound 2 in 5% EtOH/PBS / MBEC-Biofilm Elimination, Without compound 7 / MBEC-Biofilm Elimination, With 0.01% compound 7 in 5% EtOH/PBS / MBEC-Biofilm Elimination, Without compound 1 / MBEC-Biofilm Elimination, With 0.01% compound 1 in 5% EtOH/PBS / MBEC-Biofilm Elimination, without salt of compound 2 / MBEC-Biofilm Elimination, with 0.1% salt of compound 2: unit not given here; settings: for MBEC-Biofilm Elimination, without salt of compound 2 / MBEC-Biofilm Elimination, with 0.1% salt of compound 2: Table 9; for MBEC-Biofilm Elimination, without salt of compound 2 / MBEC-Biofilm Elimination, without salt of compound 6: antibiotic or antibiotic combination alone; for MBEC-Biofilm Elimination, without salt of compound 2 / MBEC-Biofilm Elimination, with 0.1% salt of compound 2 / MBEC-Biofilm Elimination, without salt of compound 6 / MBEC-Biofilm Elimination, with 0.1% salt of compound 6: value per component; for MBEC-Biofilm Elimination, with 0.1% salt of compound 2: antibiotic or combination plus 0.1% salt of compound 2; for MBEC-Biofilm Elimination, without salt of compound 6 / MBEC-Biofilm Elimination, with 0.1% salt of compound 6: Table 10; for MBEC-Biofilm Elimination, with 0.1% salt of compound 6: antibiotic or combination plus 0.1% salt of compound 6; for MBEC-Biofilm Elimination, Without compound 1 / MBEC-Biofilm Elimination, Without compound 2 / MBEC-Biofilm Elimination, Without compound 3 / MBEC-Biofilm Elimination, Without compound 6 / MBEC-Biofilm Elimination, Without compound 7 / MBEC-Biofilm Elimination, Without compound 9: antibiotic alone
# [3] = with 0.01% compound 1 in 5% EtOH/PBS
Compound,"MBEC-Biofilm Inhibition, without salt of compound 2 [1]","MBEC-Biofilm Inhibition, with 0.1% salt of compound 2 [1]","MBEC-Biofilm Inhibition, without salt of compound 6 [1]","MBEC-Biofilm Inhibition, with 0.1% salt of compound 6 [1]","MBEC-Biofilm Inhibition, Without compound 1 [1]","MBEC-Biofilm Inhibition, Without compound 2 [1]","MBEC-Biofilm Inhibition, Without compound 3 [1]","MBEC-Biofilm Inhibition, Without compound 6 [1]","MBEC-Biofilm Inhibition, Without compound 7 [1]","MBEC-Biofilm Inhibition, Without compound 9 [1]","MBEC-Biofilm Inhibition, With 0.01% compound 1 in 5% EtOH/PBS [1, 3]","MBEC-Biofilm Inhibition, With 0.01% compound 2 in 5% EtOH/PBS [1]","MBEC-Biofilm Inhibition, With 0.01% compound 7 in 5% EtOH/PBS [1]","MBEC-Biofilm Inhibition, With 0.05% compound 3 in 5% EtOH/PBS [1]","MBEC-Biofilm Inhibition, With 0.05% compound 6 in 5% EtOH/PBS [1]","MBEC-Biofilm Elimination, without salt of compound 2 [2]","MBEC-Biofilm Elimination, with 0.1% salt of compound 2 [2]","MBEC-Biofilm Elimination, without salt of compound 6 [2]","MBEC-Biofilm Elimination, with 0.1% salt of compound 6 [2]","MBEC-Biofilm Elimination, Without compound 1 [2]",also measured
"CO/N=C(\C(=O)N[C@@H]1C(=O)N2C(C(=O)[O-])=C(C[N+]3(C)CCCC3)CS[C@H]12)c1csc(N)n1 [CPE, cefepime]",>4,>4,>4,>4,>4,>4,>4,>4,>4,>4,>4,>4,>4,>4,>4,>4,>4,>4,>4,>4,"MBEC-Biofilm Elimination, Without compound 2 [2]: >4; MBEC-Biofilm Elimination, Without compound 3 [2]: >4; MBEC-Biofilm Elimination, Without compound 6 [2]: >4; MBEC-Biofilm Elimination, Without compound 7 [2]: >4; MBEC-Biofilm Elimination, Without compound 9 [2]: >4; MBEC-Biofilm Elimination, With 0.01% compound 1 in 5% EtOH/PBS [2]: >4; MBEC-Biofilm Elimination, With 0.01% compound 2 in 5% EtOH/PBS [2]: >4; MBEC-Biofilm Elimination, With 0.01% compound 7 in 5% EtOH/PBS [2]: >4; MBEC-Biofilm Elimination, With 0.05% compound 3 in 5% EtOH/PBS [2]: >4; MBEC-Biofilm Elimination, With 0.05% compound 6 in 5% EtOH/PBS [2]: >4"
"C[C@@H](O)[C@H]1C(=O)N2C(C(=O)O)=C(S[C@@H]3CN[C@H](C(=O)N(C)C)C3)[C@H](C)[C@H]12 [MER, meropenem]",>2,>2,>2,>2,>2,>2,>2,>2,>2,>2,>2,>2,>2,>2,>2,>1,>1,>1,>1,>1,"MBEC-Biofilm Inhibition, With 0.1% w/v compound 9 in PBS [1]: >2; MBEC-Biofilm Elimination, Without compound 2 [2]: >1; MBEC-Biofilm Elimination, Without compound 3 [2]: >1; MBEC-Biofilm Elimination, Without compound 6 [2]: >1; MBEC-Biofilm Elimination, Without compound 7 [2]: >1; MBEC-Biofilm Elimination, Without compound 9 [2]: >1; MBEC-Biofilm Elimination, With 0.01% compound 1 in 5% EtOH/PBS [2]: >1; MBEC-Biofilm Elimination, With 0.01% compound 2 in 5% EtOH/PBS [2]: >1; MBEC-Biofilm Elimination, With 0.01% compound 7 in 5% EtOH/PBS [2]: >1; MBEC-Biofilm Elimination, With 0.05% compound 3 in 5% EtOH/PBS [2]: 1; MBEC-Biofilm Elimination, With 0.05% compound 6 in 5% EtOH/PBS [2]: >1; MBEC-Biofilm Elimination, With 0.1% w/v compound 9 in PBS [2]: >1"
"NC[C@H]1O[C@H](O[C@H]2[C@H](O)[C@@H](O[C@H]3O[C@H](CO)[C@@H](O)[C@H](N)[C@H]3O)[C@H](N)C[C@@H]2N)[C@H](N)C[C@@H]1O [TO, tobramycin]",>2,>2,>2,>2,>2,>2,>2,>2,>2,2,0.5-2,>2,>2,>2,>2,>2,>2,>2,>2,>2,"MBEC ([1]; antibiotic or combination alone, concentrations in order of the combination): >2 µg/mL; MBEC, μg/mL +Compound 1 ([1]; antibiotic plus Compound 1): 0.5 to 2 µg/mL; MBEC, μg/mL +Compound 2 ([1]; antibiotic plus Compound 2): >2 µg/mL; MBEC, μg/mL +Compound 7 ([1]; antibiotic plus Compound 7): >2 µg/mL; (% reduction) +Compound 1 ([1]; reduction of antibiotic or combination required to prevent biofilm formation): > 50%; value in parentheses after MBEC-Biofilm Inhibition with 0.01% compound 1 (% reduction as in Table 2) [1, 3]: ≥ 50; MBEC-Biofilm Inhibition, With 0.1% w/v compound 9 in PBS [1]: >2; MBEC-Biofilm Elimination, Without compound 2 [2]: >2; MBEC-Biofilm Elimination, Without compound 3 [2]: >2; MBEC-Biofilm Elimination, Without compound 6 [2]: >2; MBEC-Biofilm Elimination, Without compound 7 [2]: >2; MBEC-Biofilm Elimination, Without compound 9 [2]: >2; MBEC-Biofilm Elimination, With 0.01% compound 1 in 5% EtOH/PBS [2]: >2; MBEC-Biofilm Elimination, With 0.01% compound 2 in 5% EtOH/PBS [2]: 1; MBEC-Biofilm Elimination, With 0.01% compound 7 in 5% EtOH/PBS [2]: 0.5; MBEC-Biofilm Elimination, With 0.05% compound 3 in 5% EtOH/PBS [2]: >2; MBEC-Biofilm Elimination, With 0.05% compound 6 in 5% EtOH/PBS [2]: >2; MBEC-Biofilm Elimination, With 0.1% w/v compound 9 in PBS [2]: >2"
colistin [CT],>1,>1,>1,>1,>1,>1,>1,>1,>1,>1,>1,>1,>1,>1,>1,>1,>1,>1,>1,>1,"MBEC-Biofilm Inhibition, With 0.1% w/v compound 9 in PBS [1]: >1; MBEC-Biofilm Elimination, Without compound 2 [2]: >1; MBEC-Biofilm Elimination, Without compound 3 [2]: >1; MBEC-Biofilm Elimination, Without compound 6 [2]: >1; MBEC-Biofilm Elimination, Without compound 7 [2]: >1; MBEC-Biofilm Elimination, Without compound 9 [2]: >1; MBEC-Biofilm Elimination, With 0.01% compound 1 in 5% EtOH/PBS [2]: 1; MBEC-Biofilm Elimination, With 0.01% compound 2 in 5% EtOH/PBS [2]: 0.5; MBEC-Biofilm Elimination, With 0.01% compound 7 in 5% EtOH/PBS [2]: 1; MBEC-Biofilm Elimination, With 0.05% compound 3 in 5% EtOH/PBS [2]: >1; MBEC-Biofilm Elimination, With 0.05% compound 6 in 5% EtOH/PBS [2]: >1; MBEC-Biofilm Elimination, With 0.1% w/v compound 9 in PBS [2]: >1"
gentamicin [GM],>2,>2,>2,>2,>2,>2,>2,>2,>2,>2,>2,>2,>2,>2,>2,>2,>2,>2,>2,>2,"MBEC-Biofilm Inhibition, With 0.1% w/v compound 9 in PBS [1]: >2; MBEC-Biofilm Elimination, Without compound 2 [2]: >2; MBEC-Biofilm Elimination, Without compound 3 [2]: >2; MBEC-Biofilm Elimination, Without compound 6 [2]: >2; MBEC-Biofilm Elimination, Without compound 7 [2]: >2; MBEC-Biofilm Elimination, Without compound 9 [2]: 2; MBEC-Biofilm Elimination, With 0.01% compound 1 in 5% EtOH/PBS [2]: 2; MBEC-Biofilm Elimination, With 0.01% compound 2 in 5% EtOH/PBS [2]: >2; MBEC-Biofilm Elimination, With 0.01% compound 7 in 5% EtOH/PBS [2]: 2; MBEC-Biofilm Elimination, With 0.05% compound 3 in 5% EtOH/PBS [2]: >2; MBEC-Biofilm Elimination, With 0.05% compound 6 in 5% EtOH/PBS [2]: >2; MBEC-Biofilm Elimination, With 0.1% w/v compound 9 in PBS [2]: >2"
